Reference: PubChem BioAssay AID1918941 (Molecular Pharmacology Branch, DTP, NCI, 2023)
Where “and” joins values, the source holds several entries; their conditions need not be identical. Identical values can stand only once.

Test system: SW 1271 complex spheroids, viability
Assay: Anticancer human tumor SW 1271 cell line growth inhibition [LSD1];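 note: spheroids exposed to agents for 7 days before luminescence read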;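 for viability, T/C: 100% = DMSO vehicle control viability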
Settings: for viability, T/C: stronger effect = lower value
Outline: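 Complex spheroids of tumor cells with HUVEC and human MSCs, exposed to iadademstat combined with other agents. Each agent tested in half-log steps from near clinical Cmax (else 10 microM top), DMSO ≤0.25%.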

[1] = curve of first compound, second compound 0.1 µM
[2] = curve of first compound, second compound 0.316 µM
[3] = curve of first compound, second compound 1 µM
[4] = curve of first compound, second compound 3.16 µM
[5] = curve of first compound, second compound 10 µM
[6] = second compound 0.1 µM, first compound 0.000316 µM
[7] = second compound 0.1 µM, first compound 0.001 µM
[8] = second compound 0.1 µM, first compound 0.00316 µM
[9] = second compound 0.1 µM, first compound 0.01 µM
[10] = second compound 0.1 µM, first compound 0.0316 µM
[11] = second compound 0.1 µM, first compound 0.1 µM
[12] = second compound 0.316 µM, first compound 0.000316 µM
[13] = second compound 0.316 µM, first compound 0.001 µM
[14] = second compound 0.316 µM, first compound 0.00316 µM
[15] = second compound 0.316 µM, first compound 0.01 µM
[16] = second compound 0.316 µM, first compound 0.0316 µM
[17] = second compound 0.316 µM, first compound 0.1 µM
[18] = second compound 1 µM, first compound 0.000316 µM
[19] = second compound 1 µM, first compound 0.001 µM
[20] = second compound 1 µM, first compound 0.00316 µM
[21] = second compound 1 µM, first compound 0.01 µM
[22] = second compound 1 µM, first compound 0.0316 µM
[23] = second compound 1 µM, first compound 0.1 µM
[24] = second compound 3.16 µM, first compound 0.000316 µM
[25] = second compound 3.16 µM, first compound 0.001 µM
[26] = second compound 3.16 µM, first compound 0.00316 µM
[27] = second compound 3.16 µM, first compound 0.01 µM
[28] = second compound 3.16 µM, first compound 0.0316 µM
[29] = second compound 3.16 µM, first compound 0.1 µM
[30] = second compound 10 µM, first compound 0.000316 µM
[31] = second compound 10 µM, first compound 0.001 µM
[32] = second compound 10 µM, first compound 0.00316 µM
[33] = second compound 10 µM, first compound 0.01 µM
[34] = second compound 10 µM, first compound 0.0316 µM
[35] = second compound 10 µM, first compound 0.1 µM

## O=C(C=Cn1cnc(-c2cc(C(F)(F)F)cc(C(F)(F)F)c2)n1)NNc1cnccn1
Compound 0.00316 µM
  viability, T/C: 92% and 82.7%
Compound 0.01 µM
  viability, T/C: 87.1% and 89.1%
Compound 0.0316 µM
  viability, T/C: 80% and 75.1%
Compound 0.1 µM
  viability, T/C: 45.3% and 51.4%
Compound 0.316 µM
  viability, T/C: 47.8% and 40.4%
Compound 1 µM
  viability, T/C: 21.6% and 16.6%
Curve of compound
  IC50: 153 nM and 147 nM

## CC(C)CC(NC(=O)C(Cc1ccccc1)NC(=O)c1cnccn1)B(O)O (configuration not stated) + NC1CC1c1ccc(-c2cccc(O)c2)cc1
[1]
  IC50: < 0.316 nM
[2]
  IC50: < 0.316 nM
[3]
  IC50: < 0.316 nM
[4]
  IC50: < 0.316 nM
[5]
  IC50: < 0.316 nM
[6]
  viability, T/C: 2.9%
[7]
  viability, T/C: 0.1%
[8]
  viability, T/C: 0.1%
[9]
  viability, T/C: 0.28%
[10]
  viability, T/C: 0.2%
[11]
  viability, T/C: 0.25%
[12]
  viability, T/C: 3.44%
[13]
  viability, T/C: 0.11%
[14]
  viability, T/C: 0.09%
[15]
  viability, T/C: 1.18%
[16]
  viability, T/C: 0.59%
[17]
  viability, T/C: 0.2%
[18]
  viability, T/C: 2.62%
[19]
  viability, T/C: 0.2%
[20]
  viability, T/C: 0.37%
[21]
  viability, T/C: 4.1%
[22]
  viability, T/C: 0.05%
[23]
  viability, T/C: 0.13%
[24]
  viability, T/C: 2.05%
[25]
  viability, T/C: 0.64%
[26]
  viability, T/C: 0.12%
[27]
  viability, T/C: 4.7%
[28]
  viability, T/C: 0.14%
[29]
  viability, T/C: 0.19%
[30]
  viability, T/C: 6.62%
[31]
  viability, T/C: 0.5%
[32]
  viability, T/C: 0.15%
[33]
  viability, T/C: 0.72%
[34]
  viability, T/C: 0.12%
[35]
  viability, T/C: 0.19%

## CC(C)CC(NC(=O)CNC(=O)c1cc(Cl)ccc1Cl)B1OC(=O)CC(CC(=O)O)(C(=O)O)O1 (configuration not stated) + NC1CCC(NC2CC2c2ccccc2)CC1
[1]
  IC50: 4.95 nM
[2]
  IC50: 4.94 nM
[3]
  IC50: 5.09 nM
[4]
  IC50: 5.19 nM
[5]
  IC50: 5.23 nM
[6]
  viability, T/C: 93.8%
[7]
  viability, T/C: 88.8%
[8]
  viability, T/C: 78.4%
[9]
  viability, T/C: 5.55%
[10]
  viability, T/C: 0.31%
[11]
  viability, T/C: 0.44%
[12]
  viability, T/C: 92.7%
[13]
  viability, T/C: 90%
[14]
  viability, T/C: 78.1%
[15]
  viability, T/C: 5.75%
[16]
  viability, T/C: 0.88%
[17]
  viability, T/C: 0.13%
[18]
  viability, T/C: 78.5%
[19]
  viability, T/C: 80.4%
[20]
  viability, T/C: 83.8%
[21]
  viability, T/C: 6.04%
[22]
  viability, T/C: 0.34%
[23]
  viability, T/C: 0.23%
[24]
  viability, T/C: 93.7%
[25]
  viability, T/C: 93.9%
[26]
  viability, T/C: 81.4%
[27]
  viability, T/C: 8.6%
[28]
  viability, T/C: 0.51%
[29]
  viability, T/C: 0.36%
[30]
  viability, T/C: 85.3%
[31]
  viability, T/C: 79.2%
[32]
  viability, T/C: 86.2%
[33]
  viability, T/C: 6.72%
[34]
  viability, T/C: 0.65%
[35]
  viability, T/C: 0.38%

## Nc1ccn(C2OC(CO)C(O)C2(F)F)c(=O)n1 (configuration not stated) + NC1CCC(NC2CC2c2ccccc2)CC1
[1]
  IC50: > 300 nM
[2]
  IC50: > 300 nM
[3]
  IC50: > 300 nM
[4]
  IC50: > 300 nM
[5]
  IC50: > 300 nM
Second compound 0.1 µM, first compound 0.000949 µM
  viability, T/C: 83.3%
Second compound 0.1 µM, first compound 0.003 µM
  viability, T/C: 69.4%
Second compound 0.1 µM, first compound 0.00949 µM
  viability, T/C: 62.5%
Second compound 0.1 µM, first compound 0.03 µM
  viability, T/C: 59.5%
Second compound 0.1 µM, first compound 0.0949 µM
  viability, T/C: 69.3%
Second compound 0.1 µM, first compound 0.3 µM
  viability, T/C: 71.4%
Second compound 0.316 µM, first compound 0.000949 µM
  viability, T/C: 73.8%
Second compound 0.316 µM, first compound 0.003 µM
  viability, T/C: 71.2%
Second compound 0.316 µM, first compound 0.00949 µM
  viability, T/C: 76.2%
Second compound 0.316 µM, first compound 0.03 µM
  viability, T/C: 61.3%
Second compound 0.316 µM, first compound 0.0949 µM
  viability, T/C: 62.7%
Second compound 0.316 µM, first compound 0.3 µM
  viability, T/C: 59.6%
Second compound 1 µM, first compound 0.000949 µM
  viability, T/C: 80.7%
Second compound 1 µM, first compound 0.003 µM
  viability, T/C: 64.6%
Second compound 1 µM, first compound 0.00949 µM
  viability, T/C: 59.8%
Second compound 1 µM, first compound 0.03 µM
  viability, T/C: 66.3%
Second compound 1 µM, first compound 0.0949 µM
  viability, T/C: 56.1%
Second compound 1 µM, first compound 0.3 µM
  viability, T/C: 59.4%
Second compound 3.16 µM, first compound 0.000949 µM
  viability, T/C: 67.5%
Second compound 3.16 µM, first compound 0.003 µM
  viability, T/C: 68.4%
Second compound 3.16 µM, first compound 0.00949 µM
  viability, T/C: 84.5%
Second compound 3.16 µM, first compound 0.03 µM
  viability, T/C: 59.8%
Second compound 3.16 µM, first compound 0.0949 µM
  viability, T/C: 60.5%
Second compound 3.16 µM, first compound 0.3 µM
  viability, T/C: 63%
Second compound 10 µM, first compound 0.000949 µM
  viability, T/C: 83.7%
Second compound 10 µM, first compound 0.003 µM
  viability, T/C: 64.3%
Second compound 10 µM, first compound 0.00949 µM
  viability, T/C: 62.5%
Second compound 10 µM, first compound 0.03 µM
  viability, T/C: 68.6%
Second compound 10 µM, first compound 0.0949 µM
  viability, T/C: 60.7%
Second compound 10 µM, first compound 0.3 µM
  viability, T/C: 64.9%

## CC(C)CC(NC(=O)C(Cc1ccccc1)NC(=O)c1cnccn1)B(O)O (configuration not stated) + NC1CCC(NC2CC2c2ccccc2)CC1
[1]
  IC50: < 0.316 nM
[2]
  IC50: < 0.316 nM
[3]
  IC50: < 0.316 nM
[4]
  IC50: < 0.316 nM
[5]
  IC50: < 0.316 nM
[6]
  viability, T/C: 2.37%
[7]
  viability, T/C: 0.35%
[8]
  viability, T/C: 0.16%
[9]
  viability, T/C: 0.13%
[10]
  viability, T/C: 0.13%
[11]
  viability, T/C: 0.32%
[12]
  viability, T/C: 3.05%
[13]
  viability, T/C: 0.13%
[14]
  viability, T/C: 0.12%
[15]
  viability, T/C: 0.27%
[16]
  viability, T/C: 0.33%
[17]
  viability, T/C: 0.2%
[18]
  viability, T/C: 2.83%
[19]
  viability, T/C: 0.08%
[20]
  viability, T/C: 1.7%
[21]
  viability, T/C: 0.43%
[22]
  viability, T/C: 0.14%
[23]
  viability, T/C: 0.11%
[24]
  viability, T/C: 2.94%
[25]
  viability, T/C: 0.33%
[26]
  viability, T/C: 0.37%
[27]
  viability, T/C: 0.09%
[28]
  viability, T/C: 0.16%
[29]
  viability, T/C: 0.31%
[30]
  viability, T/C: 2.41%
[31]
  viability, T/C: 0.43%
[32]
  viability, T/C: 0.14%
[33]
  viability, T/C: 0.16%
[34]
  viability, T/C: 0.12%
[35]
  viability, T/C: 0.19%
